Structures can show the parent of a compound that is named as a salt. Activity calls are given as the source filed them.
Tests used:
[1] = NIH-3T3 fibroblast cytotoxicity, dose response, cytotoxicity control, cell-based, fluorescence, Alamar Blue, secondary assay (AID 2327); assay type: functional;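 also: NIH-3T3 mouse fibroblasts cultured with fluconazole at 8 µg/mL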
[2] = C. albicans growth with fluconazole, confirmation, fluorescence, retest (AID 2467); assay type: functional, cell-based
[3] = biological target: T1, Heat shock factor protein 1 (Mus musculus, UniProt P38532); assay: HSF1 potentiators in luciferase reporter cells, confirmation, cell-based, NIH3T3, luminescence, dose retest (AID 435004); assay type: functional;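 also: stress induced by proteasome inhibitor MG132 added 30 min after compound; luciferase reporter driven by HSF1 response element in NIH3T3 cells; actives raise luminescence as potentiators of the MG132 stress response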
T1 sequence (P38532 whole entry): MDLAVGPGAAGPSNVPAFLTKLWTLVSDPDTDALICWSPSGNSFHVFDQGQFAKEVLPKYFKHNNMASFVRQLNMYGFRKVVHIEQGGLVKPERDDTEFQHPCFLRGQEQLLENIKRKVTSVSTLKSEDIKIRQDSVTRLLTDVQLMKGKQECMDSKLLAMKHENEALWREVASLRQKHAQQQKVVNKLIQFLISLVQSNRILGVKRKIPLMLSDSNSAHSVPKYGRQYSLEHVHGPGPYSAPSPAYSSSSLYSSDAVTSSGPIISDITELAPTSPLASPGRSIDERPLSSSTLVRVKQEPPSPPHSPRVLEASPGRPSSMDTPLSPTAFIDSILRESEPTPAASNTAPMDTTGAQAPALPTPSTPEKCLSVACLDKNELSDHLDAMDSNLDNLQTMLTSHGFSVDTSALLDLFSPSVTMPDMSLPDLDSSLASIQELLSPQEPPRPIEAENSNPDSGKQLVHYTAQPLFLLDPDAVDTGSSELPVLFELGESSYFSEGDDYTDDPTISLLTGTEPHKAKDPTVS

[4] = P. falciparum Dd2 growth inhibitors, dose response, SYBR Green, cherry-picked samples (AID 1159567); assay type: functional, cell-based
[5] = biological target: Induced myeloid leukemia cell differentiation protein Mcl-1 (Homo sapiens, UniProt Q07820); assay type: functional
Sequence of Induced myeloid leukemia cell differentiation protein Mcl-1 (Q07820 whole entry): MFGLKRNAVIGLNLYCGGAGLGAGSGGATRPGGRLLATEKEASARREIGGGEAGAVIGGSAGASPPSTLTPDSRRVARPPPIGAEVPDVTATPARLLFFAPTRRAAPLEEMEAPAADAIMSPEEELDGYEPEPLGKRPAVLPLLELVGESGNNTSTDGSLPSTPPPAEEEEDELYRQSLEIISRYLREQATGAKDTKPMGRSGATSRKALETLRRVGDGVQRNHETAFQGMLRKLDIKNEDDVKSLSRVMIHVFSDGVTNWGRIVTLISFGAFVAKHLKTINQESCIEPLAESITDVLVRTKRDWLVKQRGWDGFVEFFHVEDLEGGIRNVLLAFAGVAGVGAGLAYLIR

[6] = microbe, parasite or virus in culture; assay type: functional; details: Mycobacterium tuberculosis
[7] = biological target: T2, Corticotropin-releasing factor receptor 2/Corticotropin-releasing factor-binding protein (Homo sapiens, UniProt P24387+Q13324); assay: Dose Response confirmation of uHTS hits for small molecule antagonists of the CRF-binding protein and CRF-R2 receptor complex.; assay type: functional; details: read-out: IC50_Mean
T2 sequence (Q13324 whole entry): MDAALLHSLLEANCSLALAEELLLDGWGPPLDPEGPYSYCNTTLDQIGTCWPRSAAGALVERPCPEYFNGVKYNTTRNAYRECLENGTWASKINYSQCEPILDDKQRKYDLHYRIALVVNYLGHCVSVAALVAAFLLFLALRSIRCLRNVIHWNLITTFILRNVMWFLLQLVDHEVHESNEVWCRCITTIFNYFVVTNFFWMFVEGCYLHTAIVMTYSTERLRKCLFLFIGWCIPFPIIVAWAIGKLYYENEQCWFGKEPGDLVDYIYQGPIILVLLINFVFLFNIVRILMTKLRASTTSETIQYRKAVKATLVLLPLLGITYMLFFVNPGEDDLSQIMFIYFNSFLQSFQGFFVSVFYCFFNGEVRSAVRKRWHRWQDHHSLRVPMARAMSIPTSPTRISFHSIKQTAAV
T2 sequence (P24387 whole entry): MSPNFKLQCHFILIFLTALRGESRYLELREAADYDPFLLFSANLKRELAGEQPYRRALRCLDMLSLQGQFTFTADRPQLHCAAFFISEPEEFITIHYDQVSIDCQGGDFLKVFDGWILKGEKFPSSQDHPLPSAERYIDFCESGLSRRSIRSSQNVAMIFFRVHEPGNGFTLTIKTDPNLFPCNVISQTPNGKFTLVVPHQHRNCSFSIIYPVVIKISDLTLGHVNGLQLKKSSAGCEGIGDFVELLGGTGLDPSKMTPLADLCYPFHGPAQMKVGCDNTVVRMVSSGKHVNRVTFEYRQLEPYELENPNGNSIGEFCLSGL

[8] = biological target: T2, Corticotropin-releasing factor receptor 2/Corticotropin-releasing factor-binding protein; assay: activators of CRF receptor 2 with binding protein – uHTS hits, confirmation (AID 602473); assay type: functional; details: read-out: EC50_Mean
Paired box protein Pax-8 = Paired box protein Pax-8 (Homo sapiens, UniProt Q06710); assay: inhibitors of PAX8-driven TPO luciferase reporter, dose response, RMG-I cells, cherry-pick (AID 687027); assay type: functional, cell-based;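 also: luciferase reporter driven by Pax8 target thyroperoxidase promoter measured by SteadyGlo luminescence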
Sequence of Paired box protein Pax-8 (Q06710 whole entry): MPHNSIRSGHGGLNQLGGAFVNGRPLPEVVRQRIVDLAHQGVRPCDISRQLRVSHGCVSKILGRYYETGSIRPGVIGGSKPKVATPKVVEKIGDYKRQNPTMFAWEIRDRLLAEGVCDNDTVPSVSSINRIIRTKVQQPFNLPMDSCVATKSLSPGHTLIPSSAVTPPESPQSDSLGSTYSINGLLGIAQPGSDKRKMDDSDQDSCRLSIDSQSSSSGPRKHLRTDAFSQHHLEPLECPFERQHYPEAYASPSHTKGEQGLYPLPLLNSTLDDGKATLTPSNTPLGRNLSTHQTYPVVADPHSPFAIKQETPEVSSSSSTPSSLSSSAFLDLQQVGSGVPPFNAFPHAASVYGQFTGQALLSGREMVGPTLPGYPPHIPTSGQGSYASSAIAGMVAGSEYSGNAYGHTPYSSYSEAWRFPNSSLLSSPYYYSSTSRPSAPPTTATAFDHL

[9] = biological target: T3, Replicative DNA helicase DnaB (Mycobacterium tuberculosis, UniProt P9WMR3); assay: DnaB intein splicing inhibitors, dose response, biochemical, cell-free fluorescence (AID 449749); assay type: functional
T3 sequence (P9WMR3 whole entry): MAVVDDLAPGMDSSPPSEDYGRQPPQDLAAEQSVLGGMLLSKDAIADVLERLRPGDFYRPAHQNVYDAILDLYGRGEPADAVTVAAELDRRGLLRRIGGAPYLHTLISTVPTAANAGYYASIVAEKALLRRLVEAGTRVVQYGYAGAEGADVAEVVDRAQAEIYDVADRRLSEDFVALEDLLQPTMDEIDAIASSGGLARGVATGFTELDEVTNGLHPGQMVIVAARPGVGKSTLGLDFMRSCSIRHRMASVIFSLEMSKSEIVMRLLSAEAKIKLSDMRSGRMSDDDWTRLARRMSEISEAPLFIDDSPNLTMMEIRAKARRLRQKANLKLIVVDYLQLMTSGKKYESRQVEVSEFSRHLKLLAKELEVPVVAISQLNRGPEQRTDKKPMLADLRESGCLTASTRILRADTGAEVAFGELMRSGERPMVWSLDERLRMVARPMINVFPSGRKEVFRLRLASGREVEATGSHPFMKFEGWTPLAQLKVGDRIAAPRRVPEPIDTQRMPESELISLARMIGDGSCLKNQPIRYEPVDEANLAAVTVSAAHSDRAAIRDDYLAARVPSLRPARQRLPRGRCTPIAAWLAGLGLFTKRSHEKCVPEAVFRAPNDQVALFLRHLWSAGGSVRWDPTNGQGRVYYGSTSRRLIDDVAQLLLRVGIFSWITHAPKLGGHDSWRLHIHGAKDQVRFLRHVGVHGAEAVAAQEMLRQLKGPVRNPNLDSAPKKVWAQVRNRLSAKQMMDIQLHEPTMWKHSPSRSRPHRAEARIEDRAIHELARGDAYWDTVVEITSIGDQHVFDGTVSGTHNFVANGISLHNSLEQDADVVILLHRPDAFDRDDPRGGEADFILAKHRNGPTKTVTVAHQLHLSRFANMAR

Protein RecA = biological target: T4, Protein RecA (Mycobacterium tuberculosis, UniProt P9WHJ3); assay: Fluorescence Cell-Free Homogeneous Dose Retest to Identify Inhibitors of RecA-Intein Splicing Activity. [Related pubchem assays (depositor defined):AID2097, AID2223, AID489010, AID492950]; assay type: functional
T4 sequence (P9WHJ3 whole entry): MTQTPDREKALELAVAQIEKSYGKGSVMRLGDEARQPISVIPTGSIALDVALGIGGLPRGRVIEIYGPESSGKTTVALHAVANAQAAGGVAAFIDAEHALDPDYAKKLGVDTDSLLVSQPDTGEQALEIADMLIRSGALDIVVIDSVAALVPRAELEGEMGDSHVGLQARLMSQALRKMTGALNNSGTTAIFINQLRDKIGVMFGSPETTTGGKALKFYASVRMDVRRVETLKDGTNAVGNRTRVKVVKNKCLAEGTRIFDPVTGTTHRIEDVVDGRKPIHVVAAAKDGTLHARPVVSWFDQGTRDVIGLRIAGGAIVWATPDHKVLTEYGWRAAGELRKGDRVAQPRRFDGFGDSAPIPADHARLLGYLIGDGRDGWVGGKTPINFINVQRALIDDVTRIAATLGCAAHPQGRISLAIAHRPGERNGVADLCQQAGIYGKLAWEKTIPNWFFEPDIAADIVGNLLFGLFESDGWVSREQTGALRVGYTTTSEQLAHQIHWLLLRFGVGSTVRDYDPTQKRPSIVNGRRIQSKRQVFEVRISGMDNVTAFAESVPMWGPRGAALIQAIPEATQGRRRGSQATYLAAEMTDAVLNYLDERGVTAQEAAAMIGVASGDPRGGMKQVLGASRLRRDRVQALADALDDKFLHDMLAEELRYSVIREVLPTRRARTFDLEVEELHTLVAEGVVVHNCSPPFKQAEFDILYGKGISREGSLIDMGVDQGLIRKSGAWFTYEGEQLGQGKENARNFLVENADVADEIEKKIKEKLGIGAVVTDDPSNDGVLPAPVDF

INS1 = assay: beta cell apoptosis inhibitors, cytokine rescue, dose response, luminescence, retest (AID 449756); assay type: functional, cell-based; details: Rattus norvegicus;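 also: cell death triggered by IL-1 beta plus TNF-alpha plus IFN-gamma mixture; protective hits raise ATP signal compared with cytokine alone wells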
[10] = inhibitors of intracellular T. cruzi replication, confirmation, NIH3T3 host cells, beta-gal luminescence (AID 2044); assay type: functional, cell-based;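 also: intracellular parasites grown in NIH/3T3 mouse fibroblasts as host cells; luminescent beta-galactosidase reporter signal from transgenic T. cruzi replicating inside host cells; inhibitors lower the luminescence signal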
[11] = cytotoxicity toward NIH3T3 fibroblasts, dose response, counter-screen, cell-based, ATP luminescence, mouse fibroblasts (AID 2010); assay type: functional;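 also: cells exposed to compound for about 90 hours before reading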

O=C(CSc1nnc(-c2ccco2)n1Cc1ccccc1)OC1CCCCC1
EC50 [1]: > 150 µM (inactive)
EC50 [2]: > 38 µM (not active)
EC50 [3]: 35.8 µM (active)

CO[C@@H]1CN(C)C(=O)c2cc(NC(=O)Cc3ccccc3)ccc2OC[C@H](C)N(C(=O)c2ccccc2F)C[C@@H]1C
AC50 [4]: 7.66 µM (active)

CCN(c1ccc(NC(=O)COC(=O)c2cc3ccccc3oc2=O)cc1)C(C)C
IC50 [5]: 25.3 µM (not active)

COc1ccc(N(CC(=O)Nc2cc(Cl)ccc2C)S(=O)(=O)c2c(C)n[nH]c2C)cc1
CC50 [6]: > 40 µM (active)

COc1ccccc1CNC(=O)CCc1nnc2ccc(NCCCN3CCCC3=O)nn12
IC50 [7]: > 47.1 µM (inactive)
EC50 [8]: > 53 µM (inactive)

CC(=O)O[C@H]1C[C@H](O[C@H]2[C@@H](O)C[C@H](O[C@H]3[C@@H](O)C[C@H](O[C@H]4CC[C@@]5(C)[C@H](CC[C@@H]6[C@@H]5CC[C@]5(C)[C@@H](C7=CC(=O)OC7)CC[C@]65O)C4)O[C@@H]3C)O[C@@H]2C)O[C@H](C)[C@H]1O[C@@H]1O[C@H](CO)[C@@H](O)[C@H](O)[C@H]1O
AC50 (Paired box protein Pax-8): 0.345 µM (active)

C[C@@H]1CN([C@H](C)CO)C(=O)Cc2cc(NC(=O)Cc3ccccc3)ccc2O[C@@H]1CN(C)Cc1ccc(C(F)(F)F)cc1
AC50 (Paired box protein Pax-8): 11.8 µM (active)

CC1=C(C(=O)OC(C)C)C(c2cccs2)N2C(=O)C(C)SC2=N1 (stereo not drawn)
IC50 [7]: > 47.1 µM (inactive)
EC50 [8]: > 53 µM (inactive)

CC1CCN(c2ccc(NC(=O)Cc3ccccc3)cc2)CC1
IC50 [5]: 5.35 µM (not active)

COc1ccc(C(CC(=O)c2ccc(C)cc2)C(C#N)C#N)cc1OC (stereo not drawn)
EC50 [3]: 5.54 µM (active)
AC50 [9]: 11.4 µM (active)
EC50 (Protein RecA): 4.79 µM (active)

CCOc1ccc(N2CC(C(=O)NCc3nnnn3-c3ccc(C)c(C)c3)CC2=O)cc1 (stereo not drawn)
IC50 [7]: > 47.1 µM (inactive)
EC50 [8]: > 53 µM (inactive)

CC1CCCCN1C(C(=O)O)c1ccccc1 (stereo not drawn)
IC50 [7]: > 47.1 µM (inactive)
EC50 [8]: > 53 µM (inactive)

C[C@@H]1CCCCO[C@@H](CN(C)Cc2ccc(C(F)(F)F)cc2)[C@H](C)CN([C@H](C)CO)C(=O)c2cc(NS(=O)(=O)c3cccs3)ccc2O1
AC50 (Paired box protein Pax-8): 9.08 µM (active)

COc1ccc(N2C(=O)C(Cl)=C(Oc3cccc(OC)c3)C2=O)cc1
EC50 [3]: 1.84 µM (active)
AC50 [9]: 18.9 µM (active)
EC50 (Protein RecA): 10.7 µM (active)

CCCCC(CC)CN=C(N)N=C(N)NCCCCCCNC(N)=NC(N)=NCC(CC)CCCC (stereo not drawn) [ALEXIDINE HYDROCHLORIDE]
CC50 [6]: 10.5 µM (active)
AC50 (INS1): 2.26 µM (active)

Nc1ccc2c(c1Cl)C(=O)c1ccc(N)c(Cl)c1C2=O
IC50 [5]: 2.76 µM (active)

CC(C)c1cc(N2CCC(=O)NC2=O)cc(C(=O)O)c1O
IC50 [7]: > 47.1 µM (inactive)
EC50 [8]: > 53 µM (inactive)

COc1ccc2c3c(n(C)c2c1)[C@@H](CO)N(C(=O)c1ccc(F)cc1)CC31CN(CC2CCOCC2)C1
AC50 [4]: 12.1 µM (active)

Cc1nn(Cc2ccccc2)c(C)c1NC(=O)c1cc2nc(-c3ccco3)cc(C(F)(F)F)n2n1
CC50 [6]: > 40 µM (active)

O=C(Cc1ccccn1)N1CCCCN2[C@@H](CO)[C@@H](c3ccc(C#Cc4ccccc4)cc3)[C@@H]2C1
AC50 [4]: 4.71 µM (active)

COC(=O)C(CC(=O)c1cccc(OC)c1)c1ccc(F)cc1 (stereo not drawn)
IC50 [7]: > 47.1 µM (inactive)
EC50 [8]: > 53 µM (inactive)

Cc1ccc(NS(=O)(=O)c2ccc(C(=O)Nc3nncs3)cc2)cc1
IC50 [7]: > 47.1 µM (inactive)
EC50 [8]: > 53 µM (inactive)

COc1ccc(C#Cc2ccc3c(c2)[C@H]2[C@H](CCN2C(=O)c2ccccn2)[C@@H](CO)N3)cc1
AC50 [4]: 3.75 µM (active)

C/C(Cl)=C\COc1cc(C)nc2c(Br)cccc12
CC50 [6]: > 40 µM (active)

O=C1N=C(N/N=C/c2ccccn2)SC1Cc1cccc(SC(F)F)c1 (stereo not drawn)
EC50 [10]: 0.528 µM (active)
CC50 [6]: 14.7 µM (active)
EC50 [11]: 4.95 µM (active)

Cc1cc(NC2CCCCC2)nc(-c2ccccc2O)n1
CC50 [6]: > 40 µM (active)

O=C(CCC(=O)OCC(F)(F)C(F)F)NCc1ccccc1
IC50 [7]: > 47.1 µM (inactive)
EC50 [8]: > 53 µM (inactive)

C=C(C)C(=O)Oc1ccc(N2C(=O)[C@@H]3C4C=CC(C4)[C@@H]3C2=O)cc1
IC50 [7]: > 47.1 µM (inactive)
EC50 [8]: > 53 µM (inactive)

CCC(C)NS(=O)(=O)c1ccc(OCC(=O)NCc2ccccn2)cc1 (stereo not drawn)
IC50 [7]: > 47.1 µM (inactive)
EC50 [8]: > 53 µM (inactive)

— ChEMBL document CHEMBL1201862, “PubChem BioAssay data set” (2004)
